# Literature values in patent US20130217673A1, “MIXED MONOAMINE REUPTAKE INHIBITOR IN A BIODEGRADABLE POLYMER CARRIER” (Warsaw Orthopedic, Inc, priority 2012, published 2013).
# Tested on: nociception
# Conditions: compared with bupivacaine
Structure (SMILES),duration of the effect in blocking nociception,potency in blocking nociception relative to bupivacaine
"CN(C)CCC=C1c2ccccc2CCc2ccccc21 [amitryptyline, 3-(10,11-dihydro-5H-dibenzo[a,d]cycloheptene-5-ylidene)-N,N-dimethylpropan-1-amine]",the effects last longer,at least three times more potent than bupivacaine
CN(C)CCC=C1c2ccccc2COc2ccccc21 [doxepin],the effects last longer,at least three times more potent than bupivacaine
